Patent publication US9951064B2, “Azaindazole compounds as inhibitors of T790M containing EGFR mutants” (Genentech, Inc., priority 2013, dated 2018)

Assays:
EGFR del746-750 T790M = target: T1, EGFR del746-750 T790M (Homo sapiens, UniProt P00533, DEL746-750/T790M); assay: EGFR del746-750 T790M biochemical assay (Caliper mobility shift); conditions: 5 μM ATP; apparent Ki (Morrison fit) converted by Cheng-Prusoff, Km of ATP 2.1 μM; read-out: EGFR(T790M/d746-750) Ki
T1 construct: purchased Carna Biosciences 08-528
Description: The exemplified compounds described herein were tested according to the assay below. The enzyme data reported in Tables 4-5 is generally a representative of multiple experiments.
Reactions proceed for 30 minutes at room temperature (22° C.) and are terminated with 80 mM 2,2′,2″,2″′-(ethane-1,2-diyldinitrilo)tetraacetic acid (EDTA). Product is detected using the Caliper mobility shift detection method where product and substrate are electrophoretically separated and measured.

[1] = tested on: H1975 (EGFR T790M/L858R) cell proliferation; assay: H1975 proliferation assay (Cell Titer-Glo); format: cell-based; conditions: Homo sapiens, NCI-H1975, 72 h, NCI-H1975 cells, 72 hour incubation, read-out: H1975 antiproliferative EC50
Description: H1975 Proliferation Assays
All cell culture reagents were purchased from Invitrogen/Gibco. Cells are cultured at 37° C. at 5% CO2 and split as recommended by ATCC.

EGFR T790M L858R = target: T2, EGFR T790M L858R (Homo sapiens, UniProt P00533, L858R/T790M); assay: EGFR T790M L858R biochemical assay (Caliper mobility shift); conditions: 5 μM ATP; apparent Ki (Morrison fit) converted by Cheng-Prusoff, Km of ATP 1.3 μM
T2 construct: purchased Life Technologies PV4879
How it was run: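 Caliper mobility-shift read-out, electrophoretic separation of substrate from product, after a 30-minute kinase reaction at 22 °C. EDTA at 80 mM terminates each reaction.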

[2] = target: T3, phosphor-EGFR in H1975(L585R/T790M) mutant EGFR expressing cells (Homo sapiens, UniProt P00533, L858R/T790M); assay: H1975 pEGFR MSD cellular assay; format: cell-based; conditions: NCI-H1975 cells, serum starved, 1 hour compound incubation, pEGFR Tyr1068 MSD; read-out: HI975 pEGFR EC50
T3 construct: host or cells: NCI-H1975
How it was run: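 Phospho-EGFR read by MSD electrochemiluminescence: capture with anti-pEGFR antibody (overnight, 4° C), detection with SULFO-TAG anti-total EGFR (1 hour, room temperature). Before lysis, H1975 cells starved of serum overnight got compound for 1 hour at 37° C, 0.5% DMSO final. EC50 via four-parameter logistic regression of percent inhibition.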

T1 sequence (P00533 with tags, fused parts or gaps DEL746-750/T790M limits assumed): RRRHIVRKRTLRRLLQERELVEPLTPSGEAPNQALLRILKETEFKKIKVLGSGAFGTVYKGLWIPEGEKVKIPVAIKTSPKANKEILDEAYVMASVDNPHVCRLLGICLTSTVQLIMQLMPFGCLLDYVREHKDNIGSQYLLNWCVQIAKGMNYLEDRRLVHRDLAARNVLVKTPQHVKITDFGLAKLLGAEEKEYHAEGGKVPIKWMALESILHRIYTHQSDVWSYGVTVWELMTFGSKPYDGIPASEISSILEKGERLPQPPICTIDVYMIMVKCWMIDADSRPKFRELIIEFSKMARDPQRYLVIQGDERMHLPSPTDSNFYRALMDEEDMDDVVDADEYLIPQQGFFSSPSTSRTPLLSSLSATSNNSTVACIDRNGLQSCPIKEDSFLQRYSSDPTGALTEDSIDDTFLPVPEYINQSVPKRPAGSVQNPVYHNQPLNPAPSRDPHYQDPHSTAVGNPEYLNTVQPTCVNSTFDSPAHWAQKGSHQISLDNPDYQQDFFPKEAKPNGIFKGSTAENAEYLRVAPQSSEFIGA
T2 sequence (P00533 25-1210 T790M/L858R): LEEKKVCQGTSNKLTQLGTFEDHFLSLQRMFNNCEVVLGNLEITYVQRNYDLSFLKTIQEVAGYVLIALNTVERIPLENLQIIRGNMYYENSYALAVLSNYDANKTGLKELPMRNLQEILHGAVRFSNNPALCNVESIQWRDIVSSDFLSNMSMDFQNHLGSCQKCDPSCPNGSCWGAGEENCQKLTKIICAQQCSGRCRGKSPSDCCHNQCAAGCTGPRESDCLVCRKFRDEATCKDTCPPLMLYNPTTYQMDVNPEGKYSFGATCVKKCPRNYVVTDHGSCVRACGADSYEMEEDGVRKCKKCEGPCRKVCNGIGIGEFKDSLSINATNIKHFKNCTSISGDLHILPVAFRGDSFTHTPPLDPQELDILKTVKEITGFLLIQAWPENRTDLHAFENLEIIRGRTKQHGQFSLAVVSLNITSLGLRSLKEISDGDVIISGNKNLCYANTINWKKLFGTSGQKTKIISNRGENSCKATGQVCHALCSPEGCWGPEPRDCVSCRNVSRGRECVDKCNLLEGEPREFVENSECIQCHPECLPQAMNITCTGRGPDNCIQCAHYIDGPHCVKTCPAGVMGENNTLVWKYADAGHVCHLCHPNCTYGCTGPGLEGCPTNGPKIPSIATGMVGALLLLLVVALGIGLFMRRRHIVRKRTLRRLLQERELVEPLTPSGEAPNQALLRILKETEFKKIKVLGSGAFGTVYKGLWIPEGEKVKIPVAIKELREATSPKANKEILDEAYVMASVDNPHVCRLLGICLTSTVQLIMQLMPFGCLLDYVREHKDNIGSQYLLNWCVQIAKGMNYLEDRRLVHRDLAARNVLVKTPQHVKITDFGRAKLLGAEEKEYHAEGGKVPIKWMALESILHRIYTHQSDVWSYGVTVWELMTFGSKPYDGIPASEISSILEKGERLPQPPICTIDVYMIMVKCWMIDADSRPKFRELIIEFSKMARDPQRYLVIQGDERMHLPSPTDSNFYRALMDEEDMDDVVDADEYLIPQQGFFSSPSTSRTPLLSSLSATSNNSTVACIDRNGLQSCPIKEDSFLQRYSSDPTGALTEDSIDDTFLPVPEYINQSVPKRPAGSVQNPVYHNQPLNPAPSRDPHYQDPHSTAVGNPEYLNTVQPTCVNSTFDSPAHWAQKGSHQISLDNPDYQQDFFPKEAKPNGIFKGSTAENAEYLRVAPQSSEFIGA
T3 sequence (P00533 25-1210 T790M/L858R): as above

SMILES | Ki (EGFR del746-750 T790M) [nM] | EC50 [1] [nM] | Ki (EGFR T790M L858R) [nM] | EC50 [2] [nM]
CC(C)n1nc(N2CC3(COC3)C2)c2cnc(Nc3ccnc(N4CC[C@](C)(O)[C@H](F)C4)n3)cc21 (racemic) [Example 64, (3RS,4SR)-3-Fluoro-1-{4-[1-isopropyl-3-(2-oxa-6-azaspiro[3,3]hept-6-yl)-1H-pyrazolo[4,3-c]pyridin-6-ylamino]pyrimidin-2-yl}-4-methylpiperidin-4-ol] | 16.1 | 701 | 3.6 | 223
CC(C)n1nc(N2CCO[C@@H](CO)C2)c2cnc(Nc3ccnc(N4CCC(O)C(F)C4)n3)cc21 (mixture of isomers) [Example 75, cis-3-Fluoro-1-(4-(3-((R)-2-(hydroxymethyl)morpholino)-1-isopropyl-1H-pyrazolo[4,3-c]pyridin-6-ylamino)pyrimidin-2-yl)piperidin-4-ol] | 10.3 | 7820 | 4.1 | 1330
CCC(C)n1nc(N2CC(O)(CO)C2)c2cnc(Nc3ccnc(N4CCC(C)(O)CC4)n3)cc21 (racemic) [Example 80, (±)-1-(4-(1-sec-Butyl-3-(3-hydroxy-3-(hydroxymethyl)azetidin-1-yl)-1H-pyrazolo[4,3-c]pyridin-6-ylamino)pyrimidin-2-yl)-4-methylpiperidin-4-ol] | 9.4 | > 10000 | 4.1 | 4370
CC(C)n1nc(N2CC(C)(C)NC2=O)c2cnc(Nc3ccnc(N4CCC(O)C(F)C4)n3)cc21 (racemic) [Example 88, (±)-1-(6-(2-(cis-3-Fluoro-4-hydroxypiperidin-1-yl)pyrimidin-4-ylamino)-1-isopropyl-1H-pyrazolo[4,3-c]pyridin-3-yl)-4,4-dimethylimidazolidin-2-one] | 4.3 | 489 | 1.8 | 187
CCC(C)n1nc(N2CC3(COC3)C2)c2cnc(Nc3ccnc(OCC(C)(C)S(C)(=O)=O)n3)cc21 (racemic) [Example 97, [1-(sec-Butyl)-3-(2-oxa-6-azaspiro[3.3]hept-6-yl)-1H-pyrazolo[4,3-c]pyridin-6-yl]-[2-(2-methanesulfonyl-2-methylpropoxy)pyrimidin-4-yl]amine] | 5.2 | 1130 | 3.2 | 233
CCC(C)n1nc(N2CCNC2=O)c2cnc(Nc3ccnc(OCC(C)(C)S(C)(=O)=O)n3)cc21 (racemic) [Example 99, 1-{1-sec-Butyl-6-[2-(2-methanesulfonyl-2-methylpropoxy)pyrimidin-4-ylamino]-1H-pyrazolo[4,3-c]pyridin-3-yl}imidazolidin-2-one] | 5.6 | 1170 | 3.2 | 617
CCC(C)n1nc(N2CCNC2=O)c2cnc(Nc3ccnc(NCC(C)(C)S(C)(=O)=O)n3)cc21 (racemic) [Example 101, 1-{1-sec-Butyl-6-[2-(2-methanesulfonyl-2-methylpropylamino)pyrimidin-4-ylamino]-1H-pyrazolo[4,3-c]pyridin-3-yl}imidazolidin-2-one] | 2.4 | 1830 | 2.3 | 568
CCC(C)n1nc(N2CCNC2=O)c2cnc(Nc3ccnc(N4CCC(S(C)(=O)=O)CC4)n3)cc21 (racemic) [Example 102, 1-{1-sec-Butyl-6-[2-(4-methanesulfonylpiperidin-1-yl)pyrimidin-4-ylamino]-1H-pyrazolo[4,3-c]pyridin-3-yl}imidazolidin-2-one] | 12.4 | 1150 | 2.2 | 710
CO[C@H]1CCN(c2nccc(Nc3cc4c(cn3)c(N3CC5(COC5)C3)nn4C(C)C)n2)C[C@H]1F (racemic) [Example 103, [2-((cis)-(±)-3-Fluoro-4-methoxypiperidin-1-yl)pyrimidin-4-yl]-[1-isopropyl-3-(2-oxa-6-azaspiro[3.3]hept-6-yl)-1H-pyrazolo[4,3-c]pyridin-6-yl]amine] | 3.9 | 248 | 1.1 | 23.1
CC(C)n1nc(N2CC(O)(C(F)(F)F)C2)c2cnc(Nc3ccnc(N4CC[C@H](O)[C@H](F)C4)n3)cc21 (racemic) [Example 129, (±)-cis-3-Fluoro-1-(4-(3-(3-hydroxy-3-(trifluoromethyl)azetidin-1-yl)-1-isopropyl-1H-pyrazolo[4,3-c]pyridin-6-ylamino)pyrimidin-2-yl)piperidin-4-ol] | 6.3 | 2720 | 2.7 | 349
CC(C)n1nc(N2CC(F)(CO)C2)c2cnc(Nc3ccnc(N4CC[C@H](O)[C@H](F)C4)n3)cc21 (racemic) [Example 130, (±)-cis-3-Fluoro-1-(4-(3-(3-fluoro-3-(hydroxymethyl)azetidin-1-yl)-1-isopropyl-1H-pyrazolo[4,3-c]pyridin-6-ylamino)pyrimidin-2-yl)piperidin-4-ol] | 3.3 | 1430 | 1.8 | 261
CC(C)n1nc(N2CCCC2=O)c2cnc(Nc3ccnc(N4CC[C@H](O)[C@H](F)C4)n3)cc21 (racemic) [Example 133, (±)-1-(6-(2-(cis-3-Fluoro-4-hydroxypiperidin-1-yl)pyrimidin-4-ylamino)-1-isopropyl-1H-pyrazolo[4,3-c]pyridin-3-yl)pyrrolidin-2-one] | 4.3 | 332 | 1.7 | 150
C[C@@H](n1nc(N2CC[C@@H](O)C2)c2cnc(Nc3ccnc(N4CC[C@](C)(O)[C@H](F)C4)n3)cc21)C(F)(F)F (racemic) [Example 140, (3RS,4SR)-3-Fluoro-1-(4-(3-((R)-3-hydroxypyrrolidin-1-yl)-1-((R*)-1,1,1-trifluoropropan-2-yl)-1H-pyrazolo[4,3-c]pyridin-6-ylamino)pyrimidin-2-yl)-4-methylpiperidin-4-ol] | 6.1 | 649 | 3.1 | 288
CCC(C)n1nc(N2CC3(COC3)C2)c2cnc(Nc3ccnc(N4C[C@@H](F)[C@@H](O)C(C)(C)C4)n3)cc21 (mixture of isomers) [Example 147, (4SR,5RS)-1-(4-((1-(sec-Butyl)-3-(2-oxa-6-azaspiro[3.3]heptan-6-yl)-1H-pyrazolo[4,3-c]pyridin-6-yl)amino)pyrimidin-2-yl)-5-fluoro-3,3-dimethylpiperidin-4-ol] | 3.9 | 227 | 2.4 | 15.8
CC(C)n1nc(N2CC[C@@H](O)C2)c2cnc(Nc3ccnc(N4C[C@@H](F)[C@@H](O)C(C)(C)C4)n3)cc21 (racemic) [Example 148, cis-5-Fluoro-1-(4-(3-((R)-3-hydroxypyrrolidin-1-yl)-1-isopropyl-1H-pyrazolo[4,3-c]pyridin-6-ylamino)pyrimidin-2-yl)-3,3-dimethylpiperidin-4-ol] | 2.5 | 225 | 1.8 | 22.3
CC(C)n1nc(N2CC(O)CC2=O)c2cnc(Nc3ccnc(N4CC[C@H](O)[C@H](F)C4)n3)cc21 (mixture of isomers) [Example 173, (±)-1-(6-(2-(cis-3-Fluoro-4-hydroxypiperidin-1-yl)pyrimidin-4-ylamino)-1-isopropyl-1H-pyrazolo[4,3-c]pyridin-3-yl)-4-hydroxypyrrolidin-2-one] | 4.8 | > 10000 | 2 | 1410
CC(C)n1nc(N2CC(F)(F)C2)c2cnc(Nc3ccnc(N4CC[C@H](O)[C@H](F)C4)n3)cc21 (racemic) [Example 174, (±)-cis-1-(4-(3-(3,3-Difluoroazetidin-1-yl)-1-isopropyl-1H-pyrazolo[4,3-c]pyridin-6-ylamino)pyrimidin-2-yl)-3-fluoropiperidin-4-ol] | 3.8 | 801 | 1.8 | 141
CC(C)n1nc(N2CC3(CC(O)C3)C2)c2cnc(Nc3ccnc(N4CC[C@H](O)[C@H](F)C4)n3)cc21 (racemic) [Example 175, (±)-2-(6-((2-((cis)-3-Fluoro-4-hydroxypiperidin-1-yl)pyrimidin-4-yl)amino)-1-isopropyl-1H-pyrazolo[4,3-c]pyridin-3-yl)-2-azaspiro[3.3]heptan-6-ol] | 2.6 | 766 | 1.4 | 97.8
CC(C)n1nc(NC(C)(C)C#N)c2cnc(Nc3ccnc(N4CC[C@H](O)[C@H](F)C4)n3)cc21 (racemic) [Example 183, (±)-2-(6-(2-(cis-3-Fluoro-4-hydroxypiperidin-1-yl)pyrimidin-4-ylamino)-1-isopropyl-1H-pyrazolo[4,3-c]pyridin-3-ylamino)-2-methylpropanenitrile] | 76.7 | 8270 | 34.7 | 1650
